{"source": "patent US7098350B2", "about": "“E2,E4,Z8-undecatrienoic acid and ester and carboxamide derivatives thereof, organoleptic uses thereof and processes for preparing same” (International Flavors & Fragrances Inc., priority 2003, dated 2006)", "key": {"[1]": {"assay": "Organoleptic and somatosensory properties (Table I)", "conditions": "at 10 ppm", "source_text": "Specific members of the 2,4,8-undecatrienoic acid derivative genus of our invention have organoleptic and somatosensory properties as set forth in the following Table I: […]"}, "[2]": {"assay": "Taste evaluation in kiwi-flavored 30° proof alcoholic beverage", "conditions": "3 ppm compound plus 200 ppm kiwi flavor blend in 30° proof alcoholic base; control has flavor blend only", "protocol": "(§1) The following formulation was prepared: […]\nFlavored beverages were prepared using the above 30° proof alcoholic base. A kiwi flavor was applied to the beverages. This flavor consisted of cis-3 hexenol, trans-2 hexenal, ethyl butyrate, ethyl-2-methyl butyrate, isoamyl butyrate, ethyl acetate, ethyl isovalerate, and trans-2-hexenol in equal proportions. The control beverage contained 200 ppm of the above flavor blend. […] Another beverage was prepared containing 200 ppm of the same flavor and 3 ppm of N-isobutyl E2,E4,Z8-undecatrienamide prepared according to Example 1(B)."}, "[3]": {"assay": "Taste evaluation in cola-flavored hard candy", "conditions": "50 ppm compound in cola-flavored hard candy; control without compound", "protocol": "as §1\nThe above formulation was added to a stainless steel pot. With constant mixing, the formulation temperature was raised to 295° F. The pot was then removed from the heat, and 1.0 grams of a cola flavor containing the ingredients in equal amounts: cinnamic aldehyde, ginger oil, lemon oil, lime oil and nutmeg oil was added and blended with the sucrose-corn syrup-water formulation. After the blending was complete, 1.2 grams of citric acid was added. The resulting liquid candy was then deposited into molds, and the molds containing the liquid candy were cooled to room temperature, yielding 200 grams of finished hard candy. […] A second candy sample was prepared using the above recipe modified by the addition of 50 ppm of N-isobutyl E2, E4, Z8-undecatrienamide prepared according the procedure of Example 1 (B)."}}, "data": [{"smiles": "CC/C=C\\CC/C=C/C=C/C(=O)NCC(C)C", "note": "[N-isobutyl E2,E4,Z8-undecatrienamide]", "values": [{"measurement": "Primary Flavor or Sensory Characteristic (sensation)", "setting": "[1]", "value": "Strong tingle at 10 ppm."}, {"measurement": "Flavor of beverage versus control", "setting": "[2]", "value": "slightly more melon rind in character than the control"}, {"measurement": "Perception / somatosensory effect of beverage versus control", "setting": "[2]", "value": "enhanced perception of alcohol and a tingle effect on the tongue"}, {"measurement": "Flavor and taste effect of hard candy versus control", "setting": "[3]", "value": "moderately strong and substantive cola profile, as well as a taste effect similar to carbonation"}]}]}
